According to US12161641B2, “Treatments and prevention of opioid neonatal abstinence syndrome” (Ohio State Innovation Foundation, priority 2016, dated 2024):

Legend:
[1] = Cumulative injections of 6β-naltrexol: tissue levels, 1 versus 4 injections; assay type: in vivo, mice
Experimental: While 6β-naltrexol is relatively excluded from adult brain, it might accumulate slowly upon multiple dosing because of slow exit from the brain. Therefore, experiments were conducted to determine whether 6β-naltrexol accumulates in tissues over time after chronic delivery, and especially through retention in adult brain. After 4 injections of 6β-naltrexol over a 24 hr period (every 6 hrs), 6β-naltrexol levels were measured in fetal and maternal tissues 4 hrs after the last dose, and accumulation assessed in comparison to a single injection with a 4 hr survival. […] However, this was not significant (p>0.2). Also, 6β-naltrexol trended towards greater accumulation in liver than brain (p=0.084 for comparison of adult liver vs adult brain after 4 injections). Likewise, 6β-naltrexol trended towards greater accumulation in embryos than adults (p=0.063 for comparison of fetal vs adult brain after 4 injections).

[2] = Weight gain during 6 day morphine dosing schedule; assay type: in vivo, mice; details: increasing concomitant doses with morphine; 6 day dosing schedule
Experimental: Total jumps were counted over a period of 15 minutes starting immediately after the injection of naloxone to induce withdrawal. Two concentration ramping procedure were used for the morphine injections with commensurate ramping of 6β-naltrexol. Data are plotted using the lower of the two drug concentrations. Asterisks indicate a significant difference compared to morphine treated animals with no 6β-naltrexol; *p<0.05; **p<0.01. […] Bidirectional arrows indicate the time bin for each 6β-naltrexol dose where an equal number of jumps occur prior to and after that time bin. Note that this timepoint increases with increasing 6β-naltrexol. Asterisk indicates a significant effect of the 1/3000, 1/1000, and 1/200 doses of 6β-naltrexol compared to morphine-alone in the first three time bins. […] The mass of each mouse was determined before and after the 6 day morphine dosing schedule and the percent weight change was determined. Asterisk indicates significant difference from animals that received morphine but no (“0”) 6β-naltrexol (p<0.05). In FIG. 3A, the number in parentheses indicates the number of animals tested at each drug concentration. […]
Animals were injected with morphine alone or morphine mixed with increasing amounts of 6β-naltrexol. […] Withdrawal jumping was videotaped and jumps were scored in a 15 minute interval. […]

[3] = Time-course of drug levels in adult and embryonic mouse plasma, brain and liver after a single subcutaneous injection (LC-MS/MS); details: for 6β-naltrexol level, Embryo Brain / 6β-naltrexol level, Embryo Liver: dam 10 mg/kg subcutaneously
[4] = 20 min survival, 10 mg/kg subcutaneously
[5] = 45 min survival, 10 mg/kg subcutaneously
[6] = 2 hrs survival, 10 mg/kg subcutaneously
[7] = 4 hrs survival, 10 mg/kg subcutaneously
[8] = non-compartmental, 0 to 240 min, 10 mg/kg subcutaneously

SMILES: Oc1ccc2c3c1O[C@H]1[C@H](O)CC[C@@]4(O)[C@@H](C2)N(CC2CC2)CC[C@]314 [6β-naltrexol]
- increase of 6β-naltrexol after cumulative injections, average for all tissues ([1]; 4 injections over 24 hr vs single injection, 4 hr survival, not significant (p>0.2)): ~1.5 fold
- 6β-naltrexol level, Adult Brain, 1 injection ([1]; adult brain, 1 injection of 10 mg/kg, 4 hr survival): 110
- 6β-naltrexol level, Adult Brain, 4 injections in 24 hrs ([1]; adult brain, 4 injections of 10 mg/kg in 24 hrs, 4 hr survival after last dose): 160
- 6β-naltrexol level, Adult Liver, 1 injection ([1]; adult liver, 1 injection of 10 mg/kg, 4 hr survival): 280
- 6β-naltrexol level, Adult Liver, 4 injections in 24 hrs ([1]; adult liver, 4 injections of 10 mg/kg in 24 hrs, 4 hr survival after last dose): 360
- 6β-naltrexol level, Embryo Brain, 1 injection ([1]; embryo brain, 1 injection of 10 mg/kg, 4 hr survival): 210
- 6β-naltrexol level, Embryo Brain, 4 injections in 24 hrs ([1]; embryo brain, 4 injections of 10 mg/kg in 24 hrs, 4 hr survival after last dose): 290
- 6β-naltrexol level, Embryo Liver, 1 injection ([1]; embryo liver, 1 injection of 10 mg/kg, 4 hr survival): 250
- 6β-naltrexol level, Embryo Liver, 4 injections in 24 hrs ([1]; embryo liver, 4 injections of 10 mg/kg in 24 hrs, 4 hr survival after last dose): 500
- 6β-naltrexol level, Plasma, 1 injection ([1]; plasma, 1 injection of 10 mg/kg, 4 hr survival): 40
- 6β-naltrexol level, Plasma, 4 injections in 24 hrs ([1]; plasma, 4 injections of 10 mg/kg in 24 hrs, 4 hr survival after last dose): 60
- effect on inhibition of weight gain by morphine [2]: alleviated
- fetal brain KP ratio ([3]; 20 min after injection): not significantly different from unity
- adult brain KP ratio (brain:plasma) ([3]; 20 min survival): 0.13
- fetal brain:maternal plasma KP ratio ([3]; 45 min after drug injection): 2.7
- adult brain KP ratio (brain:plasma) ([3]; 45 minutes survival): 0.34
- fetal brain:maternal plasma KP ratio ([3]; 120 min after injection): 15.7
- brain KP ratio based on AUC's (adult) ([3]; AUC's integrated over 4 hrs): 0.58
- KP ratio based on AUC's, adult liver ([3]; AUC-based): 2.6
- KP ratio based on AUC's, fetal liver ([3]; AUC-based): 4.3
- fetal brain KP ratio based on non-compartmental AUC's ([3]; AUC-based): 3.6
- 6β-naltrexol level, Adult Brain [3, 4]: 260 ng/g
- 6β-naltrexol level, Adult Brain [3, 5]: 310 ng/g
- 6β-naltrexol level, Adult Brain [3, 6]: 230 ng/g
- 6β-naltrexol level, Adult Brain [3, 7]: 110 ng/g
- 6β-naltrexol level, Adult Liver [3, 4]: 3570 ng/g
- 6β-naltrexol level, Adult Liver [3, 5]: 3200 ng/g
- 6β-naltrexol level, Adult Liver [3, 6]: 530 ng/g
- 6β-naltrexol level, Adult Liver [3, 7]: 280 ng/g
- embryonic brain levels higher than in adult brain, at peak ([3]; at peak, 10 mg/kg subcutaneously): ~9 fold
- 6β-naltrexol level, Embryo Brain ([3]; 20 min survival): 1350 ng/g
- 6β-naltrexol level, Embryo Brain ([3]; 45 min survival): 2780 ng/g
- 6β-naltrexol level, Embryo Brain ([3]; 2 hrs survival): 1370 ng/g
- 6β-naltrexol level, Embryo Brain ([3]; 4 hrs survival): 210 ng/g
- 6β-naltrexol level, Embryo Liver ([3]; 20 min survival): 2970 ng/g
- 6β-naltrexol level, Embryo Liver ([3]; 45 min survival): 4400 ng/g
- 6β-naltrexol level, Embryo Liver ([3]; 2 hrs survival): 1040 ng/g
- 6β-naltrexol level, Embryo Liver ([3]; 4 hrs survival): 250 ng/g
- AUC for embryonic brain greater than that of adult brain ([3]; non-compartmental, 0 to 240 min): 6 fold
- area under the curve (AUC), (maternal) plasma [3, 8]: 83+6×10^3 ng/ml-min
- area under the curve (AUC), adult brain [3, 8]: 49+2×10^3 ng/ml-min
- area under the curve (AUC), adult liver [3, 8]: 274+36×10^3 ng/ml-min
- area under the curve (AUC), embryonic (fetal) brain [3, 8]: 302+60×10^3 ng/ml-min
- area under the curve (AUC), embryonic liver [3, 8]: 373+84
- 6β-naltrexol level, Plasma [3, 4]: 2060 ng/g
- 6β-naltrexol level, Plasma [3, 5]: 930 ng/g
- 6β-naltrexol level, Plasma [3, 6]: 90 ng/g
- 6β-naltrexol level, Plasma [3, 7]: 40 ng/g
